{"source": "patent US7214709B2", "about": "“Arginine/ascorbic acid mixed powder as an oral supplement” (priority 2000, dated 2007)", "system": "O=NOO- derived from the reaction of NO· with O2·-", "assay": "Formation of peroxynitrite from reaction of NO radical with superoxide", "settings": "in vitro and in vivo condition", "from_the_text": "Ascorbate is a typical scavenger of O2·^− and thus could inhibit the production of O═NOO^−. […] Based on this discovery, an administration of a great amount of arginine combined with ascorbic acid in an amount 1/5 times and more, for example from 1/5 to 20 times, especially from 1.5 to 20 times the amount of the arginine can be expected to prevent peroxidative injuries of cells caused by the ion, O═NOO^−. Therefore, the present invention also includes the following embodiments.", "data": [{"smiles": "O=C1O[C@H]([C@@H](O)CO)C(O)=C1O", "note": "[ascorbic acid, L-ascorbic acid]", "values": [{"measurement": "Formation of O=NOO- (peroxynitrite)", "value": "retards formation"}]}]}
